Measurements as given in the NIST ThermoML archive (doi:10.1016/j.tca.2012.05.025).

Experiment: refractive index (Na D-line) (dimensionless); xn = mol fraction of the nth substance listed
Conditions: 101 kPa, Liquid, Standard Abbe refractometry

CN(C)CCCO [3-dimethylamino-1-propanol] + O
refractive index
Conditions	x1 = 0.098	x1 = 0.197	x1 = 0.293	x1 = 0.398	x1 = 0.5	x1 = 0.598	x1 = 0.7	x1 = 0.795	x1 = 0.9	x1 = 1
293.15 K	1.3569	1.3653	1.3763	1.4033	1.4193	1.4284	1.4345	1.4393	1.443	1.4368
298.15 K	1.3562	1.3644	1.3752	1.4018	1.4172	1.4268	1.4329	1.4377	1.4405	1.4347
303.15 K	1.35534	1.3635	1.3742	1.4004	1.4155	1.4251	1.431	1.4359	1.439	1.4326
308.15 K	1.3545	1.3625	1.3731	1.3987	1.4139	1.4233	1.4291	1.4338	1.4369	1.4305
313.15 K	1.3537	1.3615	1.3719	1.3972	1.4121	1.4216	1.4273	1.4319	1.4349	1.4285
318.15 K	1.3528	1.3605	1.3708	1.3956	1.4105	1.4199	1.4255	1.4302	1.4324	1.4264
323.15 K	1.3517	1.3593	1.3696	1.3947	1.4088	1.418	1.4239	1.4286	1.4315	1.4243
328.15 K	1.3506	1.3582	1.3682	1.3925	1.4072	1.4164	1.4226	1.427	1.4301	1.4222
333.15 K	1.3502	1.3571	1.3671	1.391	1.4056	1.4146	1.4204	1.4245	1.4278	1.42
